From PubChem BioAssay AID2060901 (Molecular Pharmacology Branch, DTP, NCI, 2025)

Test system: 422866-222-R5-J1-PDC complex spheroids viability
Test: Anticancer human tumor 422866-222-R5-J1-PDC patient-derived pancreatic adenocarcinoma cell line growth inhibition [RAS]
Conditions: for IC50: curve of first compound; for viability, T/C: stronger effect = lower value
Text: RAS pathway inhibitors in Combinations in Complex Spheroids
A high-throughput screen of multi-cell type tumor spheroids was designed to identify active combinations of RAS pathway inhibitors and targeted small molecules. Complex spheroids include a stromal component modeled by human endothelial cells (HUVEC) and fibroblasts modeled by human mesenchymal stem cells (MSCs). The concentration ranges selected for each drug and investigational agent were based upon clinically achievable concentrations if the clinical Cmax of the agent was known.
Compounds. The drugs and investigational agents: abemaciclib (NSC768073), cobimetinib (NSC768068), divarasib (GDC6063, NSC841802), docetaxel (NSC628503), GDC-1971 (RLY-1971, NSC841576), gemcitabine (NSC613327), inavolisib (NSC800729), ipatasertib (NSC767898), KB-0742 (NSC834161), MRTX-1133 (NSC836407), osimertinib (NSC779217), RMC-4630 (NSC839698), RMC-6236 (NSC851965), RMC-6291 (NSC852671), Ro-3306 (NSC812927), sapanisertib (NSC764658), SN-38 (NSC673596), staurosporine (NSC755774), SY5609 (NSC837396), and tovorafenib (DAY101, NSC766906), were obtained from the National Cancer Institute (NCI) Developmental Therapeutics Program Chemical Repository. The FDA-approved anticancer drug set is available from the NCI Developmental Therapeutics Program. […] The stock solutions were prepared in dimethyl sulfoxide (DMSO, Sigma-Aldrich, St. Louis, MO, cat. D2650) at 800-fold the tested concentration and stored at -70 degrees C prior to their use. All drugs and investigational agents were tested over a range starting from a high concentration at or near the clinical Cmax and decreasing in half-log increments. If the clinical Cmax for an agent had not been determined, the highest concentration tested was 10 microM.
Cell Culture. All cells were maintained in an incubator at 37 degrees C and 5% CO2 with 95% humidity. The PDC lines were cultured according to standard operating procedures established by the NCI PDMR. All PDCs were thawed and cultured in Matrigel-coated flasks prepared with a working solution of 1X Ham's F-12 nutrient mix, without supplementation (Invitrogen, Waltham, MA, cat. 11765054), 100 U/mL penicillin-streptomycin (Invitrogen, cat. 15140122), and 2.5% Matrigel (Corning Inc., Corning, NY, cat. 354248) for the first three passages. The 362531-283-R-J2-PDC and 782815-120-R-J1-PDC lines were cultured in 6C/Colon 1B media, which includes advanced DMEM/F-12 (Thermo Fisher Scientific, cat. 12634028), 10 mM HEPES (Thermo Fisher Scientific, cat. 15630080), 1X GlutaMAX supplement (Thermo Fisher Scientific, cat. 35050061), 0.1 mg/mL primocin (InvivoGen, San Diego, CA, cat. ant-pm-2), 10% defined fetal bovine serum, heat inactivated (HyClone Laboratories Inc., Logan, UT, cat. SH30070.03HI), 50% L-WRN conditioned media (ATCC, cat. CRL-3276), 1.25 mM N-Acetyl-L-cysteine (Sigma-Aldrich, cat. A9165), 10 mM nicotinamide (Sigma-Aldrich, cat. N0636), 1X B-27 supplement (Thermo Fisher Scientific, cat. 17504044), 1X N-2 supplement (Thermo Fisher Scientific, cat. 17502048), 50 ng/mL human EGF (Thermo Fisher Scientific, cat. PHG0311), and 10 microM Y-27632 dihydrochloride (Tocris Bioscience, cat. 1254). The K12877-001-R-J1-PDC line was cultured in 6I media, which includes all 6C/Colon 1B media plus 10 ng/mL human FGF-10 (PeproTech, cat. 100-26), 1 ng/mL human FGF-2 (PeproTech, cat. 100-18B), 1 µM prostaglandin E2 (Tocris Bioscience, cat. 2296), […] hydrocortisone (Sigma-Aldrich, cat. H4001), and […] bovine insulin (Sigma-Aldrich, cat. I6634). The K86415-001-R-J1-PDC line was cultured in 6D media, which includes all 6C/Colon 1B media components minus the L-WRN conditioned media. The 485176-168-R4-J1-PDC was cultured in PANC media, which includes all 6C/Colon 1B media plus 100 ng/mL human FGF-10 (PeproTech, cat. 100-26), 500 nM SB-431542 (Selleckchem, cat. S1067), and 10 nM gastrin (Tocris Bioscience, cat. 3006). […]

[1] = second compound 0.0316 µM, first compound 0.0316 µM
[2] = second compound 0.0316 µM, first compound 0.1 µM
[3] = second compound 0.1 µM, first compound 0.0316 µM
[4] = second compound 0.1 µM, first compound 0.1 µM
[5] = second compound 0.316 µM, first compound 0.0316 µM
[6] = second compound 0.316 µM, first compound 0.1 µM
[7] = second compound 1 µM, first compound 0.0316 µM
[8] = second compound 1 µM, first compound 0.1 µM
[9] = second compound 3.16 µM, first compound 0.0316 µM
[10] = second compound 3.16 µM, first compound 0.1 µM
[11] = second compound 10 µM, first compound 0.0316 µM
[12] = second compound 10 µM, first compound 0.1 µM
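Wherever viability, T/C is given: 100% = DMSO vehicle control viability.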

With `CC(C)NCC(C(=O)N1CCN(c2ncnc3c2C(C)CC3O)CC1)c1ccc(Cl)cc1` (centres undefined) + C#Cc1c(F)ccc2cc(O)cc(-c3ncc4c(N5CC6CCC(C5)N6)nc(OCC56CCCN5CC(F)C6)nc4c3F)c12 as the compound, how does the IC50 (second compound 0.0316 µM) read?
Its IC50 is over 10000 nM.

And the IC50 (second compound 0.1 µM)?
Its IC50 is over 10000 nM.

And the IC50 (second compound 0.316 µM)?
The IC50 was over 10000 nM.

And the IC50 (second compound 1 µM)?
The IC50 was under 31.6 nM.

What about the IC50 (second compound 3.16 µM) of the same compound?
The IC50 was under 31.6 nM.

And the IC50 (second compound 10 µM)?
The IC50 was under 31.6 nM.

And the viability, T/C [1]?
Its viability, T/C is 87.4%.

What about the viability, T/C [2] of the same compound?
Its viability, T/C is 79%.

And the viability, T/C (second compound 0.0316 µM, first compound 0.316 µM)?
Its viability, T/C is 88%.

What about the viability, T/C (second compound 0.0316 µM, first compound 1 µM) of the same compound?
The viability, T/C was 100%.

And the viability, T/C (second compound 0.0316 µM, first compound 3.16 µM)?
The viability, T/C was 103%.

And the viability, T/C (second compound 0.0316 µM, first compound 10 µM)?
Its viability, T/C is 121%.

And the viability, T/C [3]?
Its viability, T/C is 86.9%.

And the viability, T/C [4]?
Its viability, T/C is 64.4%.

What about the viability, T/C (second compound 0.1 µM, first compound 0.316 µM) of the same compound?
Its viability, T/C is 78.3%.

And the viability, T/C (second compound 0.1 µM, first compound 1 µM)?
The viability, T/C was 74.7%.

What about the viability, T/C (second compound 0.1 µM, first compound 3.16 µM) of the same compound?
The viability, T/C was 94.2%.

And the viability, T/C (second compound 0.1 µM, first compound 10 µM)?
Its viability, T/C is 109%.

And the viability, T/C [5]?
Its viability, T/C is 60.3%.

And the viability, T/C [6]?
Its viability, T/C is 46.1%.

What about the viability, T/C (second compound 0.316 µM, first compound 0.316 µM) of the same compound?
The viability, T/C was 58.5%.

What about the viability, T/C (second compound 0.316 µM, first compound 1 µM) of the same compound?
Its viability, T/C is 69.9%.

And the viability, T/C (second compound 0.316 µM, first compound 3.16 µM)?
The viability, T/C was 81.8%.

What about the viability, T/C (second compound 0.316 µM, first compound 10 µM) of the same compound?
The viability, T/C was 85.2%.

What about the viability, T/C [7] of the same compound?
The viability, T/C was 39.9%.

What about the viability, T/C [8] of the same compound?
Its viability, T/C is 35.3%.

What about the viability, T/C (second compound 1 µM, first compound 0.316 µM) of the same compound?
Its viability, T/C is 38.9%.

What about the viability, T/C (second compound 1 µM, first compound 1 µM) of the same compound?
The viability, T/C was 48.6%.

And the viability, T/C (second compound 1 µM, first compound 3.16 µM)?
The viability, T/C was 66.5%.

What about the viability, T/C (second compound 1 µM, first compound 10 µM) of the same compound?
The viability, T/C was 58.9%.

What about the viability, T/C [9] of the same compound?
The viability, T/C was 25.6%.

And the viability, T/C [10]?
Its viability, T/C is 24.3%.

What about the viability, T/C (second compound 3.16 µM, first compound 0.316 µM) of the same compound?
The viability, T/C was 19.6%.

What about the viability, T/C (second compound 3.16 µM, first compound 1 µM) of the same compound?
Its viability, T/C is 29.4%.

And the viability, T/C (second compound 3.16 µM, first compound 3.16 µM)?
Its viability, T/C is 38.4%.

What about the viability, T/C (second compound 3.16 µM, first compound 10 µM) of the same compound?
Its viability, T/C is 40.9%.

What about the viability, T/C [11] of the same compound?
The viability, T/C was 17.3%.

And the viability, T/C [12]?
Its viability, T/C is 19%.

And the viability, T/C (second compound 10 µM, first compound 0.316 µM)?
Its viability, T/C is 14.6%.

And the viability, T/C (second compound 10 µM, first compound 1 µM)?
The viability, T/C was 12%.

What about the viability, T/C (second compound 10 µM, first compound 3.16 µM) of the same compound?
The viability, T/C was 18.8%.

What about the viability, T/C (second compound 10 µM, first compound 10 µM) of the same compound?
Its viability, T/C is 18.8%.

What does the source list for `CC(C)n1nc(-c2ccc3oc(N)nc3c2)c2c(N)ncnc21` + C#Cc1c(F)ccc2cc(O)cc(-c3ncc4c(N5CC6CCC(C5)N6)nc(OCC56CCCN5CC(F)C6)nc4c3F)c12?
IC50 (second compound 0.0316 µM): > 100 nM; IC50 (second compound 0.1 µM): > 100 nM; IC50 (second compound 0.316 µM): > 100 nM; IC50 (second compound 1 µM): < 0.316 nM; IC50 (second compound 3.16 µM): < 0.316 nM; IC50 (second compound 10 µM): < 0.316 nM; viability, T/C (second compound 0.0316 µM, first compound 0.000316 µM): 90.6%; viability, T/C (second compound 0.0316 µM, first compound 0.001 µM): 104%; viability, T/C (second compound 0.0316 µM, first compound 0.00316 µM): 73.3%; viability, T/C (second compound 0.0316 µM, first compound 0.01 µM): 54.9%; viability, T/C [1]: 77.6%; viability, T/C [2]: 68.4%; viability, T/C (second compound 0.1 µM, first compound 0.000316 µM): 62.5%; viability, T/C (second compound 0.1 µM, first compound 0.001 µM): 75.1%; viability, T/C (second compound 0.1 µM, first compound 0.00316 µM): 65.4%; viability, T/C (second compound 0.1 µM, first compound 0.01 µM): 54.6%; viability, T/C [3]: 80%; viability, T/C [4]: 56.8%; viability, T/C (second compound 0.316 µM, first compound 0.000316 µM): 66.4%; viability, T/C (second compound 0.316 µM, first compound 0.001 µM): 62.1%; viability, T/C (second compound 0.316 µM, first compound 0.00316 µM): 60%; viability, T/C (second compound 0.316 µM, first compound 0.01 µM): 49.7%; viability, T/C [5]: 58.6%; viability, T/C [6]: 61.7%; viability, T/C (second compound 1 µM, first compound 0.000316 µM): 42.5%; viability, T/C (second compound 1 µM, first compound 0.001 µM): 37.9%; viability, T/C (second compound 1 µM, first compound 0.00316 µM): 28.2%; viability, T/C (second compound 1 µM, first compound 0.01 µM): 26.7%; viability, T/C [7]: 44%; viability, T/C [8]: 48.5%; viability, T/C (second compound 3.16 µM, first compound 0.000316 µM): 31.5%; viability, T/C (second compound 3.16 µM, first compound 0.001 µM): 26%; viability, T/C (second compound 3.16 µM, first compound 0.00316 µM): 25.8%; viability, T/C (second compound 3.16 µM, first compound 0.01 µM): 19.8%; viability, T/C [9]: 20.9%; viability, T/C [10]: 19.3%; viability, T/C (second compound 10 µM, first compound 0.000316 µM): 18.8%; viability, T/C (second compound 10 µM, first compound 0.001 µM): 21.7%; viability, T/C (second compound 10 µM, first compound 0.00316 µM): 17.4%; viability, T/C (second compound 10 µM, first compound 0.01 µM): 15.2%; viability, T/C [11]: 18.1%; viability, T/C [12]: 15.1%
